Where two headings read alike, the source gives them in different places. Where only a bound is given, the exact number is not on record here.

The target of this assay is human σ1 receptor (Homo sapiens, UniProt Q99720). The experiment in a line: biochemical. It counts as binding. Also on record: μ and σ1 dual binding: key to the marks not given beside the values.
The mark [1] stands for this setting: read-out: μ and σ1 dual binding.

Chain of human σ1 receptor (Q99720 whole entry): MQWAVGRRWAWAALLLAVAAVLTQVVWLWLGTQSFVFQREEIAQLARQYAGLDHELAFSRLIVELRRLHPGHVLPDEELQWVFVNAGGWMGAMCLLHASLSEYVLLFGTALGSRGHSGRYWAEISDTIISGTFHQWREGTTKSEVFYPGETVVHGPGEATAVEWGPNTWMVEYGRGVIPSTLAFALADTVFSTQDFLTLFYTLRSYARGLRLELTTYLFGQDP

Take `O=C1N(c2ncccc2C(F)(F)F)CC2(CCN(CCc3cc(F)ccc3F)CC2)OC12CC2` [Example 343, 8-(2,5-difluorophenethyl)-12-(3-(trifluoromethyl)pyridin-2-yl)-4-oxa-8,12-diazadispiro[2.1.5.3]tridecan-13-one]: the Ki under setting [1] is under 500 nM.
Still for that read-out and setting: to `Fc1cccnc1CCN1CCC2(CC1)CN(Cc1ccccc1)CC1(CC1)O2` [Example 344, 12-benzyl-8-(2-(3-fluoropyridin-2-yl)ethyl)-4-oxa-8,12-diazadispiro[2.1.5.3]tridecane] belongs under 100 nM.
For the compound `COC(=O)CCN1CCC2(CC1)CN(Cc1ccccc1)C(=O)C1(CC1)O2` [Example 346, methyl 3-(12-benzyl-13-oxo-4-oxa-8,12-diazadispiro[2.1.5.3]tridecan-8-yl)propanoate], the “μ and σ1 dual binding” value (combined class from Ki-σ1 (human σ1 receptor, A1) and Ki-μ (human μ-opioid receptor, A2) radioligand binding) was “++”.
Consider `COC(=O)CCN1CCC2(CC1)CN(Cc1ccccc1)CC1(CC1)O2` [Example 347, methyl 3-(12-benzyl-4-oxa-8,12-diazadispiro[2.1.5.3]tridecan-8-yl)propanoate], for which the Ki was under 500 nM.
With `COC(=O)CCN1CCC2(CC1)CN(c1ccccc1)C(=O)C1(CC1)O2` [Example 348, methyl 3-(13-oxo-12-phenyl-4-oxa-8,12-diazadispiro[2.1.5.3]tridecan-8-yl)propanoate], the Ki under setting [1] was over 500 nM.
On the same count and under the same terms, to `O=C1CO[C@@]2(CCN(Cc3ccccc3)C2)CN1c1ccccc1` [Example 349, (R)-2-benzyl-9-phenyl-6-oxa-2,9-diazaspiro[4.5]decan-8-one] belongs over 500 nM; to `O=C1CO[C@]2(CCN(Cc3ccccc3)C2)CN1c1ccccc1` [Example 350, (S)-2-benzyl-9-phenyl-6-oxa-2,9-diazaspiro[4.5]decan-8-one], over 500 nM.
